Experimental data taken from patent US4177291A, “Compounds having antidepressive activity” (priority 1976, dated 1979).
Converted amounts (≈) assume the structure as drawn. Where two headings read alike, the source gives them in different places.

Experiments:
[1] = test system: uptake of 3H-NA; experiment: Inhibition of uptake of 3H-noradrenaline in vitro (mouse midbrain slices); assay type: cell-based, mice; settings: 5 min, compound added to incubation medium, l-noradrenaline 1×10^-7 M, 5 min incubation, ED50 from dose response curves, read-out: Inhibition (50%) of uptake in vitro NA
Experimental: (§1) The method is described by Ross, Renyi and Ogren in European Journal of Pharmacology 17 (1972), 107-112. Tricyclic antidepressant drugs of type imipramine added in vitro or given in vivo to mice decrease the uptake of ^14 C-5-HT and ^3 H-NA in vitro. In the in vitro experiments different concentrations of the test compound were added to the incubation medium. In the in vivo experiments different doses of the test drug were administered intraperitoneally half an hour before the animals were killed. The incubation performance was the same in the two types of experiments, i.e. the midbrain was taken out and sliced and incubated in a mixture consisting of, per 100 mg of brain slices, 0.2 n-mole of ^14 C-5-HT, 0.2 n-mole of ^3 H-NA and 11μ mole of glucose in 2 ml of Krebs-Henseleit buffer, pH 7.4. The incubation time was 5 minutes. The radioactive amines taken up in the slices were dissolved in Soluene-350® (Packard) and the amounts were determined with the double labelling technique by liquid scintillation. The concentration or dose producing 50 percent decrease of the active uptake (ED50) was determined graphically from dose response curves. Active uptake is defined as that part of the radioactive uptake which is inhibited by a high concentration of cocaine. All doses were given at least to four animals.

[2] = test system: uptake of 3H-NA; experiment: Inhibition of uptake of 3H-noradrenaline in vivo (drug given i.p., uptake measured in midbrain slices); settings: Mus musculus, ip, 0.5 h, mice dosed i.p. half an hour before killing, l-noradrenaline 1×10^-7 M, read-out: Inhibition (50%) of uptake in vivo NA
Experimental: as §1, with “Tricyclic antidepressant drugs of type imipramine added in vitro or given in vivo to mice decrease the uptake of ^14 C-5-HT and ^3 H-NA in vitro.” left out

[3] = test system: uptake of 14C-5-HT; experiment: Inhibition of uptake of 14C-5-HT in vitro (mouse midbrain slices); assay type: cell-based, mice; settings: 5 min, read-out: Inhibition (50%) of uptake in vitro 5-HT
Experimental: as §1

[4] = test system: uptake of 14C-5-HT; experiment: Inhibition of uptake of 14C-5-HT in vivo (drug given i.p., uptake measured in midbrain slices); settings: Mus musculus, ip, 0.5 h, mice dosed i.p. half an hour before killing, 5-HT 1×10^-7 M, read-out: Inhibition (50%) of uptake in vivo 5-HT
Experimental: as §1, with “Tricyclic antidepressant drugs of type imipramine added in vitro or given in vivo to mice decrease the uptake of ^14 C-5-HT and ^3 H-NA in vitro.” left out

[5] = test system: 5-HTP behavioural syndrome; experiment: 5-HTP response potentiation test; assay type: in vivo, mice; settings: Mus musculus, read-out: Potentiation of 5-HTP effective dose
Experimental: Inhibition of the uptake of 5-HT potentiates the effects of administered 5-hydroxytryptophan (5-HTP) probably by increasing the amount of 5-HT at the receptor. Three mice are given the test drugs one hour (or 4, 24 hours) before dl-5-HTP 90 mg/kg i.v. 5-HTP alone gives only a weak behavioural syndrome but in pretreated mice there is seen a characteristic behavioural syndrome, which comes within five minutes: tremor, lordosis, abduction of the hindlegs, head-twiches. The strength of the syndrome is scored from 0 to +3. Each group consists of 3 animals and at least 4 groups were tested at 25 mg/kg i.p. Control groups receiving imipramine (Tofranil®) are used as reference, since imipramine constantly potentiated dl-5-HTP. The least dose of the test compound producing maximal score (+3) in all animals is estimated from a logarithmic dose-response curve, and is denoted "effective dose" in the following Table.

Compound	IC50 [1] [mg/L]	ED50 [2] [mg/kg]	IC50 ([3]; Mus musculus) [mg/L]	ED50 [4] [mg/kg]	minimal effective dose [5] [mg/kg]	IC50 ([3]; compound added to incubation medium, mouse midbrain slices, 5-HT 1×10^-7 M, 5 min incubation, ED50 from dose response curves) [mg/L]	minimal effective dose ([5]; mice, least dose producing maximal score (+3) in all animals, test drug given before dl-5-HTP 90 mg/kg i.v.) [mg/kg]
CN(C)CCCN1c2ccccc2CCc2ccccc21 [Imipramine, imipramine]	0.06 (≈ 0.214 µM)	6	0.1 (≈ 0.357 µM)	24	15		
CC(N)C(=O)CC(C)(C)Cc1ccc(Cl)cc1.Cl (stereo not shown) [GEA 995, 2-amino-6-(4-chlorophenyl)-5,5-dimethyl-3-hexanone hydrochloride]	> 10	> 40		20		0.6	4
